This is an account of results in patent US20050034187A1, “Modified tet-inducible system for regulation of gene expression in plants” (priority 2000, published 2005).

The subject of data set [1] is wild type tet Receptor and TripleX-driven GUS gene (pAC489/pAC499 double transformants). Kind of data set: Seed germination test: induction of GUS gene in seedlings. The format is in vivo, tobacco. As to conditions: concentration curve, FIG. 19.
Data set [2] deals with TripleX/GUS (pAC499) repressed by nTR under control of different promoters. The data set is described as follows: Leaf disk induction experiment, GUS assay (double transformants). The format is cell-based, tobacco. To be noted: Doxy 5 mg/l, leaf disks, FIG. 2. The source says:
FIG. 2—Induction of GUS Gene in Leaves Expressing NLS-tet Receptor Under Control of Different Promoters. Tobacco plants. already expressing pAC499 (TripleX/GUS) were transformed with […] pCAMBIA-based Agro cassettes carrying NPTII marker gene and nTR under control of 35S, 2×35S, A. thaliana HPPD, A. thaliana AHAS, A. thaliana Actin and (OCS)3MAS promoters (pACAG076, 077, 078, 079, 109 and 084), as well as pAC489 (35S/WtTR) to yield a number of transgenic lines. This collection of tobacco plants was tested in a preliminary induction experiment performed on leaf disks: 5-10 mm leaf disks were excised from plants and put into six- or twelve-well plates with liquid MS medium and with or without Doxy 5 mg/l at 5 mg/l. GUS assays were performed with the tissues 5 days later. Each bar represents one sample; numbers above the bars represent magnitude of induction.
FIG. 3—Induction of GUS Gene In Tobacco Leaves Expressing nTR Under Control of Different Promoters. […]
Evaluation of tet inducible system in plant tissues. […] These plates were cultivated in dark on shaker at 90 rpm for 5 days (three weeks for analysis of induction of herbicide resistance) and then used in assays or evaluated visually. […] Three weeks later the induction of regeneration from these disks was evaluated.

The next data set relates to tobacco line pACAG029#4. To be noted: in vivo. The source says:
FIG. 36—tet-Inducible Herbicide Resistance: Spray Test of F1 Seedlings and Seeds of Tobacco Line pACAG029#4. Seedlings at different stages of development (1 and 2 weeks old), produced by germination in 2.5″×2.5″ pots with Metro mix, were used for assessing tet inducible herbicide resistance in a post-emergence test. For pre-emergency application, seeds were sown on the Metro mix right before PURSUIT®, application. 15-20 seeds were placed in each pot. Pots were sprayed with doxycycline premixed with PURSUIT®, each at different rates. The test was evaluated two weeks after the spray. Each pot in the figure represents a unique experiment in terms of the combination of chemical rates and the stage of seedling development. As shown in the figure, the rate of herbicide resistance directly corresponded with increased doxycycline application rates.
Induction of herbicide resistance in plants growing in soil has been investigated. Transgenic F1 heterozygous tobacco seeds of the line pACAG029#4 (this line has been shown elsewhere herein to provide the best repression/induction in tissue culture tests) ere used for the spray test. Seedlings at different stages of development (1 and 2 weeks old) produced by germination of seeds in 2.5″×2.5″ pots with Metro mix were used for post-emergence test. For pre-emergency application, seeds were sown on the Metro mix right before the application of herbicide. […]

As for `C[C@H]1c2cccc(O)c2C(=O)C2=C(O)[C@]3(O)C(=O)C(C(N)=O)=C(O)[C@@H](N(C)C)[C@@H]3[C@@H](O)[C@@H]21` [doxycycline], in data set [1], the “threshold concentration at which noticeable induction occurred” value was determined as 0.1 mg/L. The “magnitude of induction of GUS” value in data set [2] (nTR driven by 35S promoter, 5 days) was 26 to 76 fold. The “maximum induction of GUS” value in data set [2] (nTR driven by HPPD and AHAS promoters) is given as 1.4 fold. Also, in the data set with tobacco line pACAG029#4, the “plant injury in spray test” value was “caused some injury and stunted growth of plants”.
